This passage reports IC50 results from patent US9045486B2, “Pyrimidone derivatives and their use in the treatment, amelioration or prevention of a viral disease” (priority 2013, dated 2015).

In the experiment the target is T1, influenza A virus (IAV) PA-Nter fragment (amino acids 1-209) (Influenza A virus, UniProt P31343).
T1 construct: PA-Nter fragment (amino acids 1-209); made in house
In words: FRET endonuclease activity assay. The format is biochemical. The settings on record: 0.5 μM PA-Nter, 1.6 μM dual-labelled RNA substrate; IC50 from initial reaction velocities (v0).
As to `CC(C)N1CCn2c(Cc3ccccc3-c3ccccc3Cl)nc(=O)c(O)c2C1=O`, inhibition was half-maximal at 657 nM (IC50).

In the case of `O=C1NCCn2c(Cc3ccccc3-c3ccccc3)nc(=O)c(O)c21`, half-maximal inhibition (IC50) was put at 60 nM. `CC(C)N1CCn2c(Cc3ccccc3-c3ccccc3)nc(=O)c(O)c2C1=O`: the IC50 (in general, the midpoint of a concentration-inhibition curve) was 196 nM.

Compound `CN1CCn2c(Cc3ccccc3-c3ccccc3Cl)nc(=O)c(O)c2C1=O` came in with an IC50 of 175 nM. For the compound `CN1CCn2c(CC3(c4ccccc4)CCCC3)nc(=O)c(O)c2C1=O`, the 50% inhibitory concentration (IC50) was 116 nM. Compound `CC(C)N1CCn2c(CC3(c4ccccc4)CCCC3)nc(=O)c(O)c2C1=O` returned an IC50 of 93 nM. The value for `CN1CCn2c(CC3(c4ccc(Cl)cc4)CCCC3)nc(=O)c(O)c2C1=O` was 160 nM. `CC(C)N1CCn2c(CC3(c4ccc(Cl)cc4)CCCC3)nc(=O)c(O)c2C1=O` came in with an IC50 of 252 nM.

For `CC(N1CCn2c(CC3(c4ccc(Cl)cc4)CCCC3)nc(=O)c(O)c2C1=O)C(F)(F)F` (centres unmarked), the IC50 came out at 296 nM. For `O=C1c2c(O)c(=O)nc(CC3(c4ccc(Cl)cc4)CCCC3)n2CCN1c1ccccc1`, it took 1180 nM to reach half-maximal inhibition (IC50).

`CC(C)N1CCn2c(Cc3cccc4ccccc34)nc(=O)c(O)c2C1=O` registered an IC50 of 1810 nM.

Compound `CC(C)N1CCn2c(Cc3cccc(Cl)c3Cl)nc(=O)c(O)c2C1=O` showed an IC50 of 350 nM. `CC(C)N1CCn2c(Cc3ccccc3-c3cccc(Cl)c3Cl)nc(=O)c(O)c2C1=O` displayed an IC50 of 370 nM. The value for `CC(C)N1CCn2c(Cc3ccccc3-c3ccc(Cl)c(Cl)c3)nc(=O)c(O)c2C1=O` was 2510 nM; that for `CC(C)N1CCn2c(Cc3ccccc3-c3ccc(Cl)cc3)nc(=O)c(O)c2C1=O` was 1370 nM. On to `COc1ccc(-c2ccccc2)c(Cc2nc(=O)c(O)c3n2CCN(C(C)C)C3=O)c1`, for which the midpoint of inhibition, the IC50, lay at 430 nM.

As to `CC(c1ccccc1-c1ccccc1)c1nc(=O)c(O)c2n1CCN(C(C)C)C2=O` (centres unmarked), the IC50 turned out to be 1700 nM. In turn, `CC(C)N1CCn2c(Cc3cscc3-c3ccccc3)nc(=O)c(O)c2C1=O` gave an IC50 of 1390 nM. `CC(c1ccccc1)N1CCn2c(CC3(c4ccc(Cl)cc4)CCCC3)nc(=O)c(O)c2C1=O` (centres unmarked) came in with an IC50 of 1130 nM. Regarding `CC(C)N1CCn2c(CC(C)(C)c3ccccc3)nc(=O)c(O)c2C1=O`, the IC50 came out at 250 nM.

Consider `CC(C)N1CCn2c(CC3(c4ccccc4)CCCCC3)nc(=O)c(O)c2C1=O`, for which inhibition was half-maximal at 120 nM (IC50). Turning to `CC(C)N1CCn2c(CC3(c4ccc(Cl)c(Cl)c4)CCCC3)nc(=O)c(O)c2C1=O`, the IC50 worked out at 610 nM. As to `CC(C)N1CCn2c(CC3(c4cccc(Cl)c4)CCCC3)nc(=O)c(O)c2C1=O`, the IC50 worked out at 320 nM. Consider `CC(C)N1CCn2c(CC3(c4ccc5ccccc5c4)CCCC3)nc(=O)c(O)c2C1=O`, for which the IC50 was determined as 110 nM. As to `CC(C)N1CCn2c(Cc3ccccc3-c3cccc(F)c3F)nc(=O)c(O)c2C1=O`, the IC50 came out at 200 nM. For the compound `CC(C)N1CCn2c([C@@H]3CCC[C@@H]3c3ccccc3)nc(=O)c(O)c2C1=O`, the midpoint of inhibition, the IC50, lay at 500 nM.

The compound `CC(C)N1CCn2c([C@H]3CCC[C@H]3c3ccccc3)nc(=O)c(O)c2C1=O` registered an IC50 of 230 nM.

The compound `CC(C)N1CCn2c(CC(C)(C)n3ccc4ccccc43)nc(=O)c(O)c2C1=O` yielded an IC50 of 240 nM. The value for `CC(C)N1CCn2c(Cc3cc(O)ccc3-c3ccccc3)nc(=O)c(O)c2C1=O` was 146 nM. `COc1ccc(-c2ccccc2Cc2nc(=O)c(O)c3n2CCN(C(C)C)C3=O)cc1` came in with an IC50 of 122 nM. `CC(C)N1CCn2c(Cc3ccccc3C3CCCCC3)nc(=O)c(O)c2C1=O` displayed an IC50 of 114 nM.

Compound `CC(C)N1CCn2c(Cc3ccccc3-c3ccncc3)nc(=O)c(O)c2C1=O` gave an IC50 of 94 nM. For the compound `CC(C)N1CCn2c(Cc3ccccc3-c3cccc(F)c3)nc(=O)c(O)c2C1=O`, half-maximal inhibition (IC50) was put at 380 nM. For `CC(C)N1CCn2c(Cc3ncccc3-c3ccccc3)nc(=O)c(O)c2C1=O`, the IC50 amounted to 380 nM. The value for `CC(C)N1CCn2c(Cc3ccccc3-c3ccc(F)c(F)c3)nc(=O)c(O)c2C1=O` was 1060 nM; that for `CC(C)c1ccc(-c2ccccc2Cc2nc(=O)c(O)c3n2CCN(C(C)C)C3=O)cc1` was 700 nM. `CC(C)N1CCn2c(Cc3ccccc3-c3ccc(F)cc3)nc(=O)c(O)c2C1=O` returned an IC50 of 1550 nM.

Compound `CC(C)N1CCn2c(Cc3ccccc3-c3ccc(C#N)cc3)nc(=O)c(O)c2C1=O` came in with an IC50 of 300 nM. `CC(C)N1CCn2c(Cc3ccccc3-c3ccc(C(F)(F)F)c(F)c3)nc(=O)c(O)c2C1=O` yielded an IC50 of 380 nM. `CC(C)N1CCn2c(Cc3ccccc3-c3ccc(C(F)(F)F)cc3)nc(=O)c(O)c2C1=O` displayed an IC50 of 320 nM.

`CC(C)N1CCn2c(Cc3ccccc3-c3ccc(OC(F)(F)F)cc3)nc(=O)c(O)c2C1=O` displayed an IC50 of 550 nM. Regarding `CC(C)N1CCn2c(Cc3ccccc3-c3ccc4c(c3)OCO4)nc(=O)c(O)c2C1=O`, the IC50 is 229 nM. As to `O=C1c2c(O)c(=O)nc(CC3(c4ccccc4)CCCC3)n2CCN1C1CCCC1`, inhibition was half-maximal at 521 nM (IC50).

In the case of `CSc1ccc(-c2ccccc2Cc2nc(=O)c(O)c3n2CCN(C(C)C)C3=O)cc1`, the IC50 was determined as 116 nM. Take `O=C1c2c(O)c(=O)nc(CC3(c4ccccc4)CCCC3)n2CCN1C1CCC1`: the IC50 worked out at 102 nM. `CC(C)(C)CN1CCn2c(CC3(c4ccccc4)CCCC3)nc(=O)c(O)c2C1=O` had an IC50 of 143 nM. With `O=C1c2c(O)c(=O)nc(CC3(c4ccccc4)CCCC3)n2CCN1CC1CC1` the figure was 138 nM; with `O=C1c2c(O)c(=O)nc(CC3(c4ccccc4)CCCC3)n2CCN1C1COC1`, 134 nM. On to `O=C1c2c(O)c(=O)nc(CC3(c4ccccc4)CCCC3)n2CCN1C1CC1`, for which inhibition was half-maximal at 98 nM (IC50). With `O=C1c2c(O)c(=O)nc(CC3(c4ccccc4)CCCC3)n2CCN1C1CCOCC1` the figure was 43 nM; with `O=C1c2c(OCc3ccccc3)c(=O)nc(CC3(c4ccccc4)CCCC3)n2CCN1C1CCOCC1`, > 25000 nM; with `CC(C)N1CCn2c(CC3(c4ccc(C#N)cc4)CCCC3)nc(=O)c(O)c2C1=O`, 41 nM. As to `CC(C)N1CCn2c(CC3(c4cc(Cl)ccc4Cl)CCCC3)nc(=O)c(O)c2C1=O`, the IC50 stood at 295 nM. The value for `CC(C)N1CCn2c(CC3(c4ccc(C(F)(F)F)cc4)CCCC3)nc(=O)c(O)c2C1=O` was 262 nM; that for `CC(C)N1CCn2c(CC3(c4ccccc4)CCC(F)(F)CC3)nc(=O)c(O)c2C1=O` was 84 nM. Consider `O=C1c2c(O)c(=O)nc(CC3(c4ccccc4)CCCC3)n2CCN1Cc1ccc(F)cc1`, for which the IC50 was 422 nM.

Compound `O=C1c2c(O)c(=O)nc(CC3(c4ccc(Cl)cc4)CCCC3)n2CCN1CC1CC1` came in with an IC50 of 205 nM. In the case of `O=C1c2c(OCc3ccccc3)c(=O)nc(CC3(c4ccc(Cl)cc4)CCCC3)n2CCN1CC1CC1`, the IC50 is > 25000 nM.

`O=C1c2c(O)c(=O)nc(CC3(c4ccc(Cl)cc4)CCCC3)n2CCN1C1CC1` yielded an IC50 of 730 nM. In turn, `O=C1c2c(O)c(=O)nc(CC3(c4cccc5ccccc45)CCCC3)n2CCN1CC1CC1` showed an IC50 of 140 nM.

In turn, `CN1CCn2c(CC3(c4cccc5ccccc45)CCCC3)nc(=O)c(O)c2C1=O` came in with an IC50 of 110 nM. On to `O=C1c2c(O)c(=O)nc(CC3(c4ccc(Cl)cc4)CCCC3)n2CCN1C1CCOCC1`, for which the IC50 turned out to be 60 nM. For `O=C1c2c(O)c(=O)nc(CC3(c4cccc5ccccc45)CCCC3)n2CCN1C1CCOCC1`, 110 nM corresponded to half-maximal inhibition (IC50). The compound `O=C1c2c(O)c(=O)nc(CC3(c4cccc5ccccc45)CCCC3)n2CCN1C1CC1` gave an IC50 of 104 nM. For the compound `O=C1c2c(O)c(=O)nc(CC3(c4cccc5ccccc45)CCCC3)n2CCN1C1COC1`, the IC50 was > 25000 nM. On to `O=C1c2c(O)c(=O)nc(CC3(c4cccc5ccccc45)CCCC3)n2CCN1Cc1ccccc1`, for which 670 nM corresponded to half-maximal inhibition (IC50). The value for `CN1CCn2c(CC3(n4ccc5cccnc54)CCCC3)nc(=O)c(O)c2C1=O` was 80 nM. Compound `CC(C)N1CCn2c(CC3(n4ccc5cccnc54)CCCC3)nc(=O)c(O)c2C1=O` returned an IC50 of 20 nM. The compound `O=C1c2c(O)c(=O)nc(CC3(n4ccc5cccnc54)CCCC3)n2CCN1CC1CC1` gave an IC50 of 141 nM. Consider `O=C1c2c(OCc3ccccc3)c(=O)nc(CC3(n4ccc5cccnc54)CCCC3)n2CCN1CC1CC1`, for which the IC50 was > 25000 nM. Compound `O=C1c2c(O)c(=O)nc(CC3(n4ccc5cccnc54)CCCC3)n2CCN1C1COC1` gave an IC50 of 108 nM. With `O=C1c2c(O)c(=O)nc(CC3(n4ccc5cccnc54)CCCC3)n2CCN1C1CC1` the figure was 92 nM; with `O=C1c2c(O)c(=O)nc(CC3(n4ccc5cccnc54)CCCC3)n2CCN1C1CCC1`, 173 nM. The value for `CC(C)N1CCn2c(Cc3ccc(Cl)cc3-c3ccc(F)cc3)nc(=O)c(O)c2C1=O` was 436 nM. Compound `CC(C)N1CCn2c(Cc3ccc(Cl)cc3-c3ccc(Cl)cc3)nc(=O)c(O)c2C1=O` had an IC50 of 266 nM. For `CC(C)N1CCn2c(Cc3ccc(Cl)cc3-c3cccnc3)nc(=O)c(O)c2C1=O`, the IC50 is 81 nM.

For `CC(C)N1CCn2c(Cc3ccc(Cl)cc3-c3ccncc3)nc(=O)c(O)c2C1=O`, half-maximal inhibition (IC50) was put at 110 nM. In the case of `CC(C)N1CCn2c(Cc3ccc(Cl)cc3Br)nc(=O)c(OCc3ccccc3)c2C1=O`, the concentration for half-maximal inhibition (IC50) is > 25000 nM.

Take `CC(C)N1CCn2c(CC3(c4cccc5ccccc45)CCCC3)nc(=O)c(O)c2C1=O`: the midpoint of inhibition, the IC50, lay at 270 nM. For `CC(C)N1CCn2c(CC3(c4cc(C(F)(F)F)cc(C(F)(F)F)c4)CCCC3)nc(=O)c(O)c2C1=O`, the IC50 stood at 318 nM. `CC(C)N1CCn2c(CC3(c4cccc(C(F)(F)F)c4)CCCC3)nc(=O)c(O)c2C1=O` returned an IC50 of 460 nM. `CC(C)N1CCn2c(-c3ccccn3)nc(=O)c(O)c2C1=O` yielded an IC50 of 1890 nM.

Compound `O=C1c2c(O)c(=O)nc(CC3(c4ccc(Cl)cc4)CCCC3)n2CCN1Cc1ccccc1` gave an IC50 of 990 nM. For the compound `O=C1NCCn2c(CC3(c4ccc(Cl)cc4)CCCC3)nc(=O)c(O)c21`, the half-maximal inhibitory concentration (IC50) came out at 1270 nM.

Take `CC(C)N1CCn2c(CC3(c4ccccn4)CCCC3)nc(=O)c(O)c2C1=O`: 97 nM corresponded to half-maximal inhibition (IC50). `CN1CCn2c(CC3(c4ccccn4)CCCC3)nc(=O)c(O)c2C1=O` showed an IC50 of 63 nM.
